Reference: patent US20100197789A1, “ANTI-OBESITY AGENT AND USE THEREOF” (National University Corporation Nagoya University, priority 2006, published 2010)

Experiments:
Type in all cases: in vivo, mouse
UCP1 mRNA = test: Real time PCR, UCP1 mRNA in brown adipose tissues, db/db mice; conditions: after 5 week-administration, 1.1 and 2.7 mg/dl in drinking water
Method: 5 week-old male C57BL/KsJ-db/db mice (db/db mice: body weight 19 to 25 g, Japan SLC, Inc.) were purchased and individually fed in tip cages. For the db/db mice, normal pellet diet (CE-2) was administered under free water intake and free food intake. A body weight and a food intake amount over 24 hours were measured every day from the start of feeding. On day 3 after the start of feeding, blood was taken from an orbit after 6 hour-fasting and a blood glucose level and a blood insulin concentration were measured. […] A food intake amount and a body weight were measured over time during the period of 5 week-administration of (±)-baclofen, blood was taken after the end of the 5-week administration, and the db/db mice were sacrificed by cervical luxation. […] The epididymal white adipose tissues and subcutaneous white adipose tissues were measured in weights, and then fixed in 4% formaldehyde and preserved at 4° C.
RNA was taken out from the brown adipose tissues preserved at −80° C., and expression of a UCP-1 mRNA was examined in the real time quantitative […] method by using ABI PRISM (registered trademark) 7700 Sequence Detection System.

DIO mice [1] = test: Fasting blood glucose, HbA1c, blood insulin, plasma leptin and adiponectin after 5-week administration, DIO mice
Method: The blood glucose level was measured by a glucose analyzer Antisense (HORIBA, Ltd.) promptly after taking blood from an orbit. HbA1c was measured by a glycohemoglobin analyzer HLC-723 GHbV (manufactured by TOSOH Corporation) after preserving blood at −80° C.
After taking blood from an orbit by using a hematocrit tube coated with heparin, blood was centrifuged at 3500 rpm at 4° C. for 15 minutes, and plasma was preserved at −80° C. The plasma concentrations of insulin, leptin and adiponectin were measured by the ELISA method (levis insulin kit (mouse): Shibayagi Co., Ltd., Morinaga Leptin assay kit: Morinaga Institute of Biological Science, Inc., Mouse/rat adiponectin ELISA kit: OTSUKA Pharmaceutical Co., Ltd.).
(±)-baclofen (5 mg/kg/day), SKF97541 (0.3 mg/kg/day) or 3-APPA (5 mg/kg/day) was orally administered to DIO mice for 5 weeks according to the above described method, and then blood was taken from an orbit after 6 hour-fasting and a blood glucose level, an HbA1c value and a blood insulin concentration were measured.
(§1) (±)-baclofen (5 mg/kg/day) was orally administered to DIO mice for 5 weeks according to the above described method, and then, blood was taken from an orbit after 6 hour-fasting, and a plasma leptin concentration and a plasma adiponectin concentration were measured. The DIO mice were sacrificed by cervical luxation after the end of the 5-week administration, and then epididymal white adipose tissues and subcutaneous white adipose tissues were surgically removed, and after measuring the weights, they were fixed in 4% formaldehyde. The epididymal white adipose tissues were cut out to prepare a section with a thickness of 8 μm and subjected to Hematoxylin-Eosin stain (H-E stain) and a form (size) of a fat cell was examined by using an image analysis system, Neurolucida (MicroBrightField Japan, Inc.).

db/^+m mice = test: Rectal temperature, db/+m mice; conditions: (±)-baclofen 2.7 mg/dl in drinking water for 5 weeks
Method: 5 week-old male C57BL/KsJ-db/^+m mice (db/^+m mice: body weight 19 to 23 g, Japan SLC, Inc.) were purchased and individually fed in tip cages. To the db/^+m mice, normal pellet diet (CE-2) was administered under free water intake and free food intake. A body weight and a food intake amount over 24 hours were measured every day from the start of feeding. On day 3 after the start of feeding, blood was taken from an orbit after 6 hour-fasting and a blood glucose level and a blood insulin concentration were measured. The db/^+m mice were divided into two groups (10 mice per each group) so that a body weight, a 24 hour-food intake amount, a blood glucose level, and a blood insulin concentration were equal, and defined to be a control group and a baclofen treated group. […] A food intake amount and a body weight of the db/^+m mice were measured over time, and a rectal temperature was measured 5 weeks after the start of the administration. […]
R-baclofen and S-baclofen were administered to db/db/mice and (±)-baclofen was administered to db/^+m mice respectively for 5 weeks, and rectal temperatures were then continuously measured for 3 days at 20 o'clock immediately before the dark period when feed intake was started in the mice. […] That is, the rectal temperatures were measured by using a digital thermistor (manufactured by NATSUME SEISAKUSHO CO., LTD.).

DIO mice [2] = test: White adipose tissue weights and fat cell size, DIO mice; conditions: (±)-baclofen 5 mg/kg/day oral 5 weeks
Method: as §1

[3] = 6 hour-fasting after 5 weeks oral, (±)-baclofen 5, SKF97541 0.3, 3-APPA 5 mg/kg/day, vs control
[4] = (±)-baclofen 5 mg/kg/day oral 5 weeks, 6 hour-fasting

In the case of `NCC(CC(=O)O)c1ccc(Cl)cc1` (racemic) [(±)-baclofen, (RS)-4-amino-3-(4-chlorophenyl)butanoic acid], the “UCP1 mRNA expression in brown adipose tissues” value (UCP1 mRNA) is reported as “Significant increases”, the “fasting blood glucose level” value (DIO mice [1]; [3]) is reported as “significant decreases” and the “fasting blood insulin concentration” value (DIO mice [1]; [3]) is reported as “significant decreases”. The plasma adiponectin concentration (DIO mice [1]; [4]) was “significantly increased”, the plasma leptin concentration (DIO mice [1]; [4]) was “significantly decreased” and the HbA1c value (DIO mice [1]; after 5 weeks oral, (±)-baclofen 5, SKF97541 0.3, 3-APPA 5 mg/kg/day, vs control) was “significant decreases”. The rectal temperature (db/^+m mice) was “did not give a significant effect”, the “weight of epididymal white adipose tissues” value (DIO mice [2]) was “significantly decreased” and the “weight of subcutaneous white adipose tissues” value (DIO mice [2]) was “significantly decreased”. For the same compound, the “size of a fat cell in the epididymal white adipose tissues” value (DIO mice [2]; H-E stain) was “decreased”.
